Series [1] deals with USH2A gene (F region and R region of exon 13). Description: Indel efficiency of USH2A guide RNA expression cassettes by next generation sequencing (NGS). The arrangement: Indel efficiency (%) Cas12f1 ver3.0 / Indel efficiency (%) Cas12f1 ver4.0 / Indel efficiency (%) Cas12f1 ver4.1: concentration or dose not given beside the values. Type of series: cell-based, human. The settings on record: for Indel efficiency (%) Cas12f1 ver3.0: scaffold Cas12f1 ver3.0 (SEQ ID NO: 315); for Indel efficiency (%) Cas12f1 ver3.0 / Indel efficiency (%) Cas12f1 ver4.1 / Indel efficiency (%) Cas12f1 ver4.0: expression cassette, NGS; for Indel efficiency (%) Cas12f1 ver4.1: scaffold Cas12f1 ver4.1 (SEQ ID NO: 317); for Indel efficiency (%) Cas12f1 ver4.0: scaffold Cas12f1 ver4.0 (SEQ ID NO: 316). An excerpt:
A nucleotide sequence encoding the guide RNA designed based on the protospacer sequence selected in Example 2.1 was constructed into an expression cassette, which was immediately transfected to confirm indel efficiency by next generation sequencing (NGS) without the T7E1 assay. Here, the guide RNA was designed to include a U-rich tail sequence (for example, 5′-U4AU6-3′) at the 3′-end.
To confirm indel efficiency of the guide sequences of Cas12f1, a cassette containing the U6 promoter, scaffold sequence, guide sequence, and U-rich tail sequence (T4AT6) was amplified by PCR and used. The process was performed as follows.
The spacer was selected from the 20mer sequence followed by TTTA or TTTG, which are PAM of Cas12f1, and spacers whose sequences end with T were excluded. In addition, to minimize off-target effects, the spacers were designed using CRISPR RGEN TOOL by classifying them with less than 2 mismatches. In addition, the reverse complement sequence comprising a DR (direct repeat) and U-rich sequence was used as an R primer.
1% agarose gel was prepared, and the size marker and PCR products were added to the gel. Electrophoresis was performed to confirm the amplified size.
After confirming the amplified size, the gel was purified according to Experimental Example 9 to quantify the PCR products.
(§1) The day before transfection, HEK293T and ARPE19-HPV cells (80% confluency) cultured in 100 mm dishes were treated with trypsin to detach from the bottom of the dish. The detached cells were placed in 50 ml of pre-warmed medium (see Experimental Example 15 for its composition) and slowly dissolved with a pipette. 24-well plates were prepared according to the number of samples and repetitions, and 500 μl of cell suspension medium was added to each well (1/100 dilution). Then, incubation was performed overnight in a CO2 incubator at 37° C. until transfection.
(§2) The next day, when the cell confluency reached approximately 70% to 80%, 200 μl of the 500 μl medium per well was removed and the plates were placed in the incubator. 1.5 ml tubes were prepared according to the number of samples, and 200 μl of Opti-MEM was added to each tube. 1.5 μg of Cas12f1 DNA and 0.5 μg of gRNA (or a vector containing nucleic acids encoding Cas12f1 DNA and two gRNAs) were added to the tube containing Opti-MEM, and vortexed for 5 seconds (nucleic acid mixture). Then, the nucleic acid mixture and FuGENE HD were added at a ratio of 1:3, and reaction was allowed to occur at room temperature for 20 minutes (that is, in a case where the nucleic acid mixture was 2 μg, 6 μl of FuGENE HD was administered). The 24-well plate was taken out from the incubator, and 200 μl of the solution containing the nucleic acid mixture and FuGENE HD was gently added along the well wall. After shaking the plate sufficiently in an S shape, it was incubated in a CO2 incubator at 37° C. for 72 hours. After 72 hours, the cells were harvested and gDNA was extracted therefrom according to Experimental Example 8.
(§3) NGS analysis to confirm indel efficiency for the target was performed over a total of three PCR rounds.
The conditions for conducting the first PCR for each region are disclosed in Tables 20 to 29 below.

For series [2], the system named is USH2A gene. The series is described as follows: Indel efficiency depending on length of the guide sequence. Type of series: cell-based, human. Particulars: highest value by guide length: F16 22mer, FA12 20mer, R19 24mer, R40 20mer; ver4.1 scaffold for F16, FA12, ver4.0 for R19, R40.
Source text: Each guide sequence (F16, FA12, R19, R40) selected through Examples 2 and 3 was modified to have a guide sequence of 19- to 25-mer length based on the PAM adjacent to the protospacer sequence, and vectors expressing the same were produced, respectively, to compare the indel efficiency depending on a length of the guide sequence. As for the scaffold sequence, Cas12f1 ver4.1 was used for F16 and FA12, and Cas12f1 ver4.0 was used for R19 and R40, as selected in Example 2.2.
as §1, §2, §3

Turning to “UCCAUAUAUAUACAUAUAUA (expressed or natural sequence) [GUIDE-USH2A-FA12]”, in series [1], the “Indel efficiency (%) Cas12f1 ver3.0” value amounted to 4.61% and the “Indel efficiency (%) Cas12f1 ver4.1” value stood at 1.29%. The molecule also came in with an indel efficiency in series [2] of 72.19%.

Regarding “GCAUUGGUCAGUGUGUAAGA (expressed or natural sequence) [GUIDE-USH2A-R22]”, in series [1], the “Indel efficiency (%) Cas12f1 ver3.0” value is recorded as 6.32%, the “Indel efficiency (%) Cas12f1 ver4.0” value was 16.03% and the “Indel efficiency (%) Cas12f1 ver4.1” value is reported as 15.79%.

As for “AGAGUAAGAUUGGCCCCCUA (expressed or natural sequence) [GUIDE-USH2A-F05]”, in series [1], the “Indel efficiency (%) Cas12f1 ver3.0” value was determined as 0.64%, the “Indel efficiency (%) Cas12f1 ver4.0” value worked out at 1.48% and the “Indel efficiency (%) Cas12f1 ver4.1” value is on record as 4.83%.

As to “UGUUCGUAUCAUCUGCAGUA (expressed or natural sequence) [GUIDE-USH2A-F03]”, in series [1], the “Indel efficiency (%) Cas12f1 ver3.0” value is given as 4.88%, the “Indel efficiency (%) Cas12f1 ver4.0” value is 5.89% and the “Indel efficiency (%) Cas12f1 ver4.1” value is reported as 9.89%.

On to “CUUAGAAAGAAGGAUGUAUA (expressed or natural sequence) [GUIDE-USH2A-R40]”, for which, in series [1], the “Indel efficiency (%) Cas12f1 ver4.0” value is 21.35% and the “Indel efficiency (%) Cas12f1 ver4.1” value was 8.07%. Also, the indel efficiency in series [2] stood at 73.99%.

As for “CUUGCCAGAGAAGGAGUAGAACAA (expressed or natural sequence) [GUIDE-USH2A-R19-24 mer]”, in series [2], the indel efficiency came to 83%.

As for “UGUCUCGUCUAUCUUGAAUG (expressed or natural sequence) [GUIDE-USH2A-F02]”, in series [1], the “Indel efficiency (%) Cas12f1 ver3.0” value worked out at 1%, the “Indel efficiency (%) Cas12f1 ver4.0” value amounted to 0.23% and the “Indel efficiency (%) Cas12f1 ver4.1” value was 0.03%.

Take “UUUCUUUGCCUUGUAAUACC (expressed or natural sequence) [GUIDE-USH2A-F24]”: in series [1], the “Indel efficiency (%) Cas12f1 ver3.0” value is 0.04% and the “Indel efficiency (%) Cas12f1 ver4.0” value stood at 0.19%.

In the case of “ACUGUGUAGGAGACAAAGGA (expressed or natural sequence) [GUIDE-USH2A-R36]”, in series [1], the “Indel efficiency (%) Cas12f1 ver4.0” value is 3.06%.

Regarding “UAAUGUGUACAUAUAUCAAA (expressed or natural sequence) [GUIDE-USH2A-F16]”, in series [1], the “Indel efficiency (%) Cas12f1 ver3.0” value came out at 4.19%, the “Indel efficiency (%) Cas12f1 ver4.0” value was determined as 5.87% and the “Indel efficiency (%) Cas12f1 ver4.1” value turned out to be 10.78%.

Take “GGGUGAGAACAUUUAAGAUC (expressed or natural sequence) [GUIDE-USH2A-F15]”: in series [1], the “Indel efficiency (%) Cas12f1 ver3.0” value came to 0.55%.

With “UAUAGAAAUACCUAGAAUUG (expressed or natural sequence) [GUIDE-USH2A-R10]”, in series [1], the “Indel efficiency (%) Cas12f1 ver3.0” value worked out at 1.65% and the “Indel efficiency (%) Cas12f1 ver4.0” value amounted to 1.20%.

On to “CUUGCCAGAGAAGGAGUAGA (expressed or natural sequence) [GUIDE-USH2A-R19]”, for which, in series [1], the “Indel efficiency (%) Cas12f1 ver3.0” value was 26.08%, the “Indel efficiency (%) Cas12f1 ver4.0” value is 27.24% and the “Indel efficiency (%) Cas12f1 ver4.1” value was 9.48%.

As to “ACAGUGAUGAAUGACUCACC (expressed or natural sequence) [GUIDE-USH2A-FA10]”, in series [1], the “Indel efficiency (%) Cas12f1 ver3.0” value is reported as 4.41%, the “Indel efficiency (%) Cas12f1 ver4.0” value was determined as 1.52% and the “Indel efficiency (%) Cas12f1 ver4.1” value is 1.89%.

Take “AAUAUGCCAUACAUAUUCC (expressed or natural sequence) [GUIDE-USH2A-FA20]”: in series [1], the “Indel efficiency (%) Cas12f1 ver3.0” value was 2.78%, the “Indel efficiency (%) Cas12f1 ver4.0” value is listed as 0.58% and the “Indel efficiency (%) Cas12f1 ver4.1” value came to 1.03%.

For the molecule “UAAUUCUACCACCAGCCACA (expressed or natural sequence) [GUIDE-USH2A-R26]”, the “Indel efficiency (%) Cas12f1 ver4.0” value in series [1] is on record as 6.41%.

“UAGACCCAUAUAACUCAGAG (expressed or natural sequence) [GUIDE-USH2A-R18]”: the “Indel efficiency (%) Cas12f1 ver3.0” value in series [1] was 0.46%.

Regarding “AUUAUACCUUCGUGAAGCUG (expressed or natural sequence) [GUIDE-USH2A-F17]”, in series [1], the “Indel efficiency (%) Cas12f1 ver3.0” value turned out to be 0.02%, the “Indel efficiency (%) Cas12f1 ver4.0” value is listed as 0.02% and the “Indel efficiency (%) Cas12f1 ver4.1” value is given as 0.18%.

Consider “UAAUGUGUACAUAUAUCAAAAC (expressed or natural sequence) [GUIDE-USH2A-F16-22 mer]”, for which, in series [2], the indel efficiency came out at 73%.

B1: MS2/MS3/MS4/MS5: engineered sgRNA, SEQ ID NO: 317 (nucleic acid)
guide: ACCGCUUCACUUAGAGUGAAGGUGGGCUGCUUGCAUCAGCCUAAUGUCGAGAAGUGCUUUCUUCGGAAAGUAACCCUCGAAACAAAGAAAGGAAUGCAACNNNNNNNNNNNNNNNNNNNNUUUUAUUUUUU
modifications: Engineered sgRNA with modification of MS2/MS3/MS4/MS5; misc_feature 99..118 n is a, c, g or u
Turning to B1, the “indel efficiency, scaffold versions compared” value in series [1] (target sequences located in the F region) is recorded as “higher indel efficiency than ver4.0”.

B2: MS2/MS3/MS4: engineered sgRNA, SEQ ID NO: 316 (nucleic acid)
guide: ACCGCUUCACCAAAAGCUGUCCCUUAGGGGAUUAGAACUUGAGUGAAGGUGGGCUGCUUGCAUCAGCCUAAUGUCGAGAAGUGCUUUCUUCGGAAAGUAACCCUCGAAACAAAGAAAGGAAUGCAACNNNNNNNNNNNNNNNNNNNNUUUUAUUUUUU
modifications: Engineered sgRNA with modification of MS2/MS3/MS4; misc_feature 128..147 n is a, c, g or u
For the molecule B2, the “indel efficiency of cassette compared with Cas12f1 ver3.0 cassette” value in series [1] (USH2A F and R region guide sequences) is “improved in most samples”. Also, in series [1] (target sequences located in the R region), the “indel efficiency, scaffold versions compared” value is “higher indel efficiency than ver4.1”.

The record behind these values is US20250222136A1, “GENE EDITING SYSTEM FOR TREATING USHER SYNDROME” (GenKOre, Inc., priority 2022, published 2025).
